Assay results taken from patent US10889573B2, “Anthelmintic quinoline-3-carboxamide derivatives” (Bayer Animal Health GMBH, priority 2016, dated 2021).

How the values were obtained:
[1] = test system: Dirofilaria immitis microfilariae; assay: In vitro assay 3: Dirofilaria immitis microfilariae (DIROIM L1), motility; details: 72 h, read-out: EC50 (reduction of motility), 72 h incubation
[2] = molecular target: C. elegans Slo-1a (Caenorhabditis elegans, UniProt Q95V25); details: pE50 (negative decadic logarithm of EC50), CHO cells expressing C. elegans Slo-1a, voltage sensitive dye
C. elegans Slo-1a, sequence (Q95V25 whole entry): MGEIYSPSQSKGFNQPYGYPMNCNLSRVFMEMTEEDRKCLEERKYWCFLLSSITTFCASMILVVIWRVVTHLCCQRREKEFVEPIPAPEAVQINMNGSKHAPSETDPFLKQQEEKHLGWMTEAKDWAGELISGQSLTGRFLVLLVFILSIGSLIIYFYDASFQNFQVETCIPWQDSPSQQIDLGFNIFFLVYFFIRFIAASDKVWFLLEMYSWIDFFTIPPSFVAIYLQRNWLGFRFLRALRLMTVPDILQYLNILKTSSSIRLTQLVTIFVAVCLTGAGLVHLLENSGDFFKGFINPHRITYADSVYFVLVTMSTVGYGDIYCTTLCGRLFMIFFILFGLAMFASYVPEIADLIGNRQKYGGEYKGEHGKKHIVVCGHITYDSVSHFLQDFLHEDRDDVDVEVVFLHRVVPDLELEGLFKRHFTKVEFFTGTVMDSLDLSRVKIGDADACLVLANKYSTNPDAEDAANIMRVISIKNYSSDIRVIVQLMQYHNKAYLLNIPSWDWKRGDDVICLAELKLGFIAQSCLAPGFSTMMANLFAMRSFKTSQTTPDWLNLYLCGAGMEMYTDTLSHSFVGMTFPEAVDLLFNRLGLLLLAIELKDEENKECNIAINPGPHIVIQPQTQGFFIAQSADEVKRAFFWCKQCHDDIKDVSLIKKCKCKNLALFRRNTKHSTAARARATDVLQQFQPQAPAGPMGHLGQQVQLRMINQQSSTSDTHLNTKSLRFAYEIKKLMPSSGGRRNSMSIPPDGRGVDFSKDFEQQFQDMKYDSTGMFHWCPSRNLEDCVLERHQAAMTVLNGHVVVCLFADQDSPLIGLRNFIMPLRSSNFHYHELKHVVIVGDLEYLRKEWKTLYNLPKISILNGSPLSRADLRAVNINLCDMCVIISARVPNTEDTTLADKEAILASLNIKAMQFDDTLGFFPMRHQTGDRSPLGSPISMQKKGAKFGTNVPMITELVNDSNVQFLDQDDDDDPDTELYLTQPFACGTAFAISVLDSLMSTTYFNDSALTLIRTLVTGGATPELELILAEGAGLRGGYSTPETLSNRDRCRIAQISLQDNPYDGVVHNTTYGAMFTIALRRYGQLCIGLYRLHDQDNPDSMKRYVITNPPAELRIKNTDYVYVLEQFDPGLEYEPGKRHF
Procedure: In Vitro Assay 1: C. elegans Slo-1a—Action at a Recombinant C. elegans Cell Line
Cells were cultured at 37° C. and 5% CO2 in MEMalpha with Gutamax I (Invitrogen, Nr.: 32571), supplemented with 10% (v/v) heat inactivated fetal bovine serum (Invitrogen, Nr.: 10500), G418 (1 mg/ml, Invitrogen, Nr.: 10131). Cells were detached using Accutase (Sigma, Nr.: A6964).
Membrane Potential Measurements
Laboratory compound testing was performed on 384-well microtiter plates (MTPs, Greiner, Nr.: 781092). 8000 cells/well were plated onto 384-well MTPs and cultured for 20 to 24 hours at 37° C. and 5% CO2. After removal of the cell culture medium, the cells were washed once with tyrode (150 mM NaCl, 0.3 mM KCl, 2 mM CaCl2, 1 mM MgCl2, 0.8 mM NaH2PO4, 5 mM Glucose, 28 mM Hepes, pH 7.4) and then loaded with the voltage sensitive dye of the Membrane Potential Assay Kit diluted in tyrode for 1 h at room temperature.
After starting the measurement of fluorescence using a FLIPR Tetra (Molecular Devices, Exc. 510-545 nm, Emm. 565-625 nm), test compounds were added followed by the addition of KCl tyrode (final assay concentration: 70 mM KCl, 2 mM CaCl2, 1 mM MgCl2, 0.8 mM NaH2PO4, 5 mM Glucose, 28 mM Hepes, pH 7.4, including the voltage sensitive dye). The measurement was completed after 7 minutes.
The data were evaluated by using the ActivityBase XLfit software (IDBS) for curve fitting and calculation of the half-maximal effective concentration (EC50) and are reported as negative decadic logarithm (pE50).

[3] = test system: Nippostrongylus brasiliensis; assay: In vitro assay 2: Nippostrongylus brasiliensis (NIPOBR), acetylcholine esterase readout; details: read-out: activity (reduction of AChE compared to negative control); for inhibition at 10 µg/mL: 10 μg/ml; for inhibition at 1 µg/mL: 1 μg/ml
Procedure: In Vitro Assay 2: Nippostrongylus brasiliensis (NIPOBR)
Adult Nippostrongylus brasiliensis were washed with saline buffer containing 100 U/ml penicillin, 0.1 mg/ml streptomycin and 2.5 μg/ml amphotericin B. Test compounds were dissolved in DMSO and worms were incubated in medium in a final concentration of 10 μg/ml (10 ppm) respectively 1 μg/ml (1 ppm). An aliquot of the medium was used to determine the acetylcholine esterase activity in comparison to a negative control. The principle of measuring acetylcholine esterase as readout for anthelmintic activity was described in Rapson et al (1986) and Rapson et al (1987).

COc1ccc(F)cc1-c1cccc2c(N3CCC(O)C3)c(C(=O)N[C@H]3CCOc4ccccc43)cnc12 (mixture of isomers) [Example 270]
EC50 [1]: < 0.1 µg/mL | EC50 [2]: 3.16 to 31.6 nM

O=C(N[C@H]1CCOc2ccccc21)c1cnc2c(-c3cc(Cl)cc(Cl)c3)cccc2c1C1CCNC1 (mixture of isomers) [Example 519]
EC50 [1]: < 10 µg/mL | EC50 [2]: 31.6 to 316 nM

O=C(N[C@H]1CCOc2ccccc21)c1cnc2c(-c3cc(Cl)cc(Cl)c3)cccc2c1Cl [Example 4, 4-chloro-8-(3,5-dichlorophenyl)-N-[(4S)-3,4-dihydro-2H-chromen-4-yl]quinoline-3-carboxamide]
EC50 [1]: < 0.1 µg/mL | EC50 [2]: 3.16 to 31.6 nM

O=C(N[C@H]1CCc2ccccc21)c1cnc2c(-c3cccc(Cl)c3)cccc2c1Cl [Example 6]
EC50 [1]: < 0.1 µg/mL | EC50 [2]: 3.16 to 31.6 nM

CN(C)c1c(C(=O)N[C@H]2CCOc3ccccc32)cnc2c(-c3ccc4ncn(C)c4c3)cccc12 [Example 71]
EC50 [1]: < 1 µg/mL | EC50 [2]: 31.6 to 316 nM | inhibition at 10 µg/mL [3]: > 80%

O=C(N[C@H]1CCc2ccccc21)c1cnc2c(-c3cc(Cl)cc(Cl)c3)cccc2c1N1CC(O)C1 [Example 102]
EC50 [1]: < 1 µg/mL | EC50 [2]: 3.16 to 31.6 nM

CC1CN(c2c(C(=O)N[C@H]3CCc4ccccc43)cnc3c(-c4cc(Cl)cc(Cl)c4)cccc23)C1 [Example 120]
EC50 [1]: < 10 µg/mL | EC50 [2]: 31.6 to 316 nM

COC(=O)c1cc(-c2cccc3c(N4CCOCC4)c(C(=O)N[C@H]4CCOc5ccccc54)cnc23)c2ocnc2c1 [Example 216]
EC50 [1]: < 1 µg/mL | EC50 [2]: 31.6 to 316 nM

COc1cc(F)c(-c2cccc3c(N4CCOCC4)c(C(=O)N[C@H]4CCOc5ccccc54)cnc23)cc1F [Example 230]
EC50 [1]: < 1 µg/mL | EC50 [2]: 31.6 to 316 nM

CC(C)(C)OC(=O)[C@@H]1CCCN1c1c(C(=O)N[C@H]2CCc3ccccc32)cnc2c(-c3cc(Cl)cc(Cl)c3)cccc12 [Example 241]
EC50 [1]: < 1 µg/mL | EC50 [2]: 31.6 to 316 nM

CC(C)(C)OC(=O)[C@@H]1CCCN1c1c(C(=O)N[C@H]2CCOc3ccccc32)cnc2c(-c3cc(Cl)cc(Cl)c3)cccc12 [Example 242]
EC50 [1]: < 1 µg/mL | EC50 [2]: 31.6 to 316 nM

CC(C)(C)OC(=O)[C@@H]1CCCN1c1c(C(=O)N[C@H]2CCOc3ccccc32)cnc2c(-c3cc(Cl)cc(Cl)c3)cccc12 [Example 243, tert-butyl 1-{8-(3,5-dichlorophenyl)-3-[(4S)-3,4-dihydro-2H-chromen-4-ylcarbamoyl]quinolin-4-yl}-L-prolinate]
EC50 [2]: 316 to 5010 nM

O=C(N[C@H]1CCOc2ccccc21)c1cnc2c(-c3cc(Cl)cc(Cl)c3)cccc2c1N1CCC[C@@H]1CO [Example 287]
EC50 [1]: < 10 µg/mL | EC50 [2]: 3.16 to 31.6 nM | inhibition at 1 µg/mL [3]: > 80%

O=C(N[C@H]1CCc2ccccc21)c1cnc2c(-c3cc(Cl)cc(Cl)c3)cccc2c1N1CCC[C@@H]1C(=O)O [Example 299]
EC50 [1]: < 1 µg/mL | EC50 [2]: 31.6 to 316 nM

O=C(NC1CCOc2ccccc21)c1cnc2c(-c3cc(Cl)cc(Cl)c3)cccc2c1N1CC2CCC(C1)O2 (stereo not drawn) [Example 302]
EC50 [1]: < 10 µg/mL | EC50 [2]: < 3.16 nM | inhibition at 1 µg/mL [3]: > 80%

C=C(C)c1c(C(=O)N[C@H]2CCOc3ccccc32)cnc2c(-c3cc(Cl)cc(Cl)c3)cccc12 [Example 317, 8-(3,5-dichlorophenyl)-N-[(4S)-3,4-dihydro-2H-chromen-4-yl]-4-(prop-1-en-2-yl)quinoline-3-carboxamide]
EC50 [1]: < 0.1 µg/mL | EC50 [2]: 3.16 to 31.6 nM

CCOC(=O)[C@@H]1CCCN1c1c(C(=O)N[C@H]2CCOc3ccccc32)cnc2c(-c3cc(Cl)cc(Cl)c3)cccc12 [Example 320]
EC50 [1]: < 1 µg/mL | EC50 [2]: 3.16 to 31.6 nM

O=C(N[C@H]1CCc2ccccc21)c1cnc2c(-c3cc(Cl)cc(Cl)c3)cccc2c1OCC1CCCC1 [Example 348]
EC50 [1]: < 1 µg/mL | EC50 [2]: 3.16 to 31.6 nM

CCOC(=O)C(C#N)c1c(C(=O)N[C@H]2CCOc3ccccc32)cnc2c(-c3cc(Cl)cc(Cl)c3)cccc12 (stereo partly drawn) [Example 354, ethyl cyano{8-(3,5-dichlorophenyl)-3-[(4S)-3,4-dihydro-2H-chromen-4-ylcarbamoyl]quinolin-4-yl}acetate]
EC50 [1]: < 1 µg/mL | EC50 [2]: 31.6 to 316 nM

O=C(N[C@H]1CCOc2ccccc21)c1cnc2c(-c3cc(Cl)cc(Cl)c3)cccc2c1Sc1ccccn1 [Example 363]
EC50 [1]: < 10 µg/mL | EC50 [2]: 316 to 5010 nM | inhibition at 10 µg/mL [3]: > 80%

COC(=O)CNc1c(C(=O)N[C@H]2CCOc3ccccc32)cnc2c(-c3cc(Cl)cc(Cl)c3)cccc12 [Example 375]
EC50 [1]: < 0.1 µg/mL | EC50 [2]: 3.16 to 31.6 nM | inhibition at 1 µg/mL [3]: > 80%

CN(C)c1c(C(=O)N[C@H]2CCOc3ccccc32)cnc2c(-c3ccc(C#N)s3)cccc12 [Example 389]
EC50 [1]: < 10 µg/mL | EC50 [2]: 31.6 to 316 nM

O=C(N[C@H]1CCOc2ccccc21)c1cnc2c(-c3cc(Cl)cc(Cl)c3)cccc2c1N1CCC(F)(F)CC1 [Example 398]
EC50 [1]: < 10 µg/mL | EC50 [2]: < 3.16 nM

Cc1ncc(-c2cccc3c(N(C)C)c(C(=O)N[C@H]4CCOc5ccccc54)cnc23)s1 [Example 456]
EC50 [1]: < 1 µg/mL | EC50 [2]: 31.6 to 316 nM

Cc1nc2c(-c3cccc(Cl)c3Cl)cccc2c(N(C)C)c1C(=O)N[C@H]1CCOc2ccccc21 [Example 481, 8-(2,3-dichlorophenyl)-N-[(4S)-3,4-dihydro-2H-chromen-4-yl]-4-(dimethylamino)-2-methylquinoline-3-carboxamide]
EC50 [1]: < 10 µg/mL | EC50 [2]: 3.16 to 31.6 nM

CN(C)c1c(C(=O)NC2CCOc3ccc(Br)cc32)cnc2c(-c3cc(Cl)cc(Cl)c3)cccc12 (stereo not drawn) [Example 580]
EC50 [1]: < 1 µg/mL | EC50 [2]: 316 to 5010 nM

CN(C)c1c(C(=O)NC2COCc3ccccc32)cnc2c(-c3cc(Cl)cc(Cl)c3)cccc12 (stereo not drawn) [Example 581]
EC50 [1]: < 0.1 µg/mL | EC50 [2]: 31.6 to 316 nM | inhibition at 1 µg/mL [3]: > 80%

CN(C)C(=O)c1c(C(=O)N[C@H]2CCOc3ccccc32)cnc2c(-c3cc(Cl)cc(Cl)c3)cccc12 [Example 585]
EC50 [1]: < 1 µg/mL | EC50 [2]: 3.16 to 31.6 nM | inhibition at 1 µg/mL [3]: > 80%

O=C(N[C@H]1CCOc2ccccc21)c1cnc2c(-c3cc(Cl)cc(Cl)c3)cccc2c1CO [Example 592]
EC50 [2]: 316 to 5010 nM

O=C(N[C@H]1CCOc2ccccc21)c1cnc2c(-c3cc(Cl)cc(Cl)c3)cccc2c1CCO [Example 593]
EC50 [2]: 3.16 to 31.6 nM

O=C(N[C@H]1CCOc2ccccc21)c1cnc2c(-c3cc(Cl)cc(Cl)c3)c(O)ccc2c1N1CCOCC1 [Example 616]
EC50 [1]: < 0.1 µg/mL | EC50 [2]: < 3.16 nM

O=C(N[C@H]1CCOc2ccccc21)c1cnc2c(-c3cc(Cl)ccc3F)cc(O)cc2c1N1CCOCC1 [Example 626]
EC50 [1]: < 0.1 µg/mL | EC50 [2]: 3.16 to 31.6 nM | inhibition at 1 µg/mL [3]: > 80%

CN(C)c1c(C(=O)NC2CCOc3c(Br)cccc32)cnc2c(-c3cc(Cl)cc(Cl)c3)cccc12 (stereo not drawn) [Example 634]
EC50 [1]: < 0.1 µg/mL | EC50 [2]: 31.6 to 316 nM | inhibition at 1 µg/mL [3]: > 80%

O=C(N[C@H]1CCOc2ccccc21)c1cnc2c(-c3cccc(Cl)c3Cl)cccc2c1C1=CCOCC1 [Example 653]
EC50 [1]: < 0.1 µg/mL | EC50 [2]: < 3.16 nM | inhibition at 1 µg/mL [3]: > 80%

Cn1cc(-c2c(C(=O)N[C@H]3CCOc4ccccc43)cnc3c(-c4cc(Cl)cc(Cl)c4)cccc23)c(=O)n(C)c1=O [Example 654]
EC50 [1]: < 1 µg/mL | EC50 [2]: 31.6 to 316 nM

CN(C)c1c(C(=O)NC2COCc3c(F)cccc32)cnc2c(-c3cc(Cl)cc(Cl)c3)cccc12 (stereo not drawn) [Example 665]
EC50 [2]: 31.6 to 316 nM
